Measured values as given in PMC10107917 (ACS Medicinal Chemistry Letters, 2023).
Bridge positions count the residues as written; N and C are the ends. Peptide text beside a SMILES is read from it.

Tests used:
[1] = tested on: furin-like enzyme activity in PANC-1 cell lysate; assay: Total furin-like enzyme activity in PANC-1 cell lysate; format: biochemical, human; conditions: peptide 100 µM
Description: The presence of furin in PANC-1 cell lysate was indicated by analyzing the release of fluorescent AMC product after incubation of furin substrate (Pyr-Arg-Thr-Lys-Arg-AMC) in the lysate, as described elsewhere.[31],[32] However, we are aware that this assay tends to reflect total furin-like enzyme activity rather than the activity of furin exclusively. This is the case because the liberation of AMC may be catalyzed not only by furin but also by an enzyme with a similar substrate preference, such as other PCs.[31] […] For comparison, the effect of a strong trypsin inhibitor, […] SFTI-1, on furin-like activity was insignificant under the same assay conditions. […] It is likely that SFTI-1 may provide protection for furin inhibitors from degradation by trypsin-like proteases. […]
µL for matriptases and 100 µL for furin. Measurements were carried out using excitation and emission wavelengths of 380 nm and 450 nm. The percentage inhibition of an enzyme was calculated relative to the control sample without an inhibitor. […]
Total furin-like enzyme inhibition/activity in PANC-1 cell lysates
Cell line and cell culture. The pancreatic cancer cell line, PANC-1, was obtained from the American Type Culture Collection, ATCC (Manassas, USA). PANC-1, a human pancreatic cancer cell line, was isolated from the pancreatic duct (ATCC, CRL-1469) and was cultured in Dulbecco’s Modified Eagle’s Medium (DMEM) by supplementing 10% fetal bovine serum (FBS) and 1% of penicillin/streptomycin (P/S). Cells were cultured at 37 °C with 5% CO2 in a humidified atmosphere. Cells were maintained in a 75 cm2 tissue culture flask. The medium was replaced every two days. The subcultivation ratio was […]
Preparation of lysates. PANC-1 cells were seeded in a Petri dishes. After 24 hours, […] were collected and centrifuged at 975 × g at 4 °C for 9 minutes. The supernatant was removed, and the cells were resuspended in a cold PBS buffer. The cells were centrifuged again at 900 × g at 4 °C for 5 minutes.
The supernatant was removed. Cells were suspended in Halt Protease Inhibitor Cocktail, EDTA-Free (100X) (Thermo Fisher Scientific). The samples were stored for 2 hours at -80°C. The samples were then defrosted and centrifuged at 16 000 × g at 4 °C for 20 minutes. The supernatant was stored at -80 […]
The inhibitory potency of selected peptides was examined in cell lysate alone or in presence of sunflower trypsin inhibitor (SFTI-1)6 sing furin fluorogenic substrate […] (Pepta Nova, Germany). Furin activity was determined by monitoring the AMC liberation over time with a plate reader. Measurements were performed using 96-well black plates (BRAND, Germany).
The general procedure was according to.7 In short: 20 µL of cell lysate (diluted 10 times with assay buffer pH 7.5 100 mM HEPES with 1 mM CaCl 2) was added to the well containing 60 µL of water, after 15 min in 37 °C 10 µL of peptide solution (final concentration in well 100 µM) was added. After 30 min incubation in 37 °C 10 µL substrate (100 µM final concentration) was added. […]
(§1) Next step was addition of appropriate peptide solution
(§2) (final concentration in well 100 µM) and 30 min incubation in 37 °C. After this time 10 µL substrate (100 µM final concentration) was added to the well. Percentage inhibition of the enzyme was calculated relative to the control sample without inhibitor.
(§3) Human serum from plasma (Sigma Aldrich, Germany) was prepared for the assay as referred previously.8 The experiments were carried out according to the procedure described before.2 The initial concentration of the peptide solutions was 1.54 mM. Each peptide solution was then diluted 10 times with human serum and incubated at 37 °C. Immediately after the start of incubation, 1, 2, 3, 5 and 24

[2] = Stability in human serum (HPLC); format: in vitro ADME; set-up: remaining at 5 h / remaining at 48 h: dose or concentration left out as unconfirmed; conditions: 37 °C; for remaining at 5 h: after 5 h of incubation, read-out: intact peptide detected by HPLC; for state of peptide in human serum: after 24 h; for remaining at 48 h: after 48 h of incubation, read-out: initial concentration of peptide remaining unchanged (HPLC)
Description: Next, we examined the stabilities of inhibitors 3, 5, 6, and FI in human serum (Figure 6). As expected, both monocyclic peptides (3 and FI) were degraded more rapidly than bicyclic inhibitors 5 and 6. After 5 h of incubation, about 25% of intact peptide 3 and 15% of FI were detected by HPLC. […] By contrast, the bicyclic peptides were clearly more resistant and stable. About 59% and 28% (based on HPLC data) of the initial concentrations of peptide 5 and peptide 6, respectively, remained unchanged even after 48 h of incubation. […] This possible protease-driven degradation was not confirmed in any additional experiments and must be treated with caution. It might be also speculated that the observed decrease in concentrations of both bicyclic peptides is related to binding to serum proteins during the long incubation process and subsequent sample preparation before HPLC analysis, as mentioned elsewhere.[36] Generally, our results are in accordance with the widely recognized observation that macrocyclization of peptides increases their stability. […]
as §1, §2
as §3, with “24 […]” for “24”
hours the samples of 200 μL were taken and mixed with 200 μL of acetonitrile to separate the human serum proteins. The formed precipitate was removed by centrifugation for 10 min at 13,000 rpm. The supernatant was stored in 3-4 °C for at least 1 hour before being analyzed by RP-HPLC (linear gradient 10-90% phase B, 40 min., Kinetex 5 μm XB-C18 100Å 150 x 4.6 mm) and MALDI-MS (Autoflex maX MALDI-TOF spectrometer, Bruker Daltonics, Germany). In order to determine peptide stability at each time point, the peptide peak area from recorded chromatograms was compared with the peptide peak area obtained directly after mixing peptide and plasma, and expressed as its percentage.
Molecular dynamics simulations […]
(Figure 5SA) bound to the furin active site were built based on the crystal structure of MT-SP1 in complex with SFTI-1 (PDB ID: 1P8J 2.0 Å) by aligning catalytic triad of both proteins in PyMOL, Molecular Graphics System, Version 2.0 Schrödinger, LLC software. Next, SFTI-1 peptide was replaced by one of the five designed ligands (Figure 5SB). Five resulting furin-inhibitor complexes were further used as starting structures for the molecular dynamic (MD) calculations.
The AMBER20 suite was used to perform MD simulations,9 ff14SBonlysc10 force field parameters were used. The initial complex structures were built in the xLeap module of AMBER20. The periodic boundary conditions with TIP3P11 octahedral water box and Na+ counterions were used. Two steps of energy minimization were performed: first 500 steepest descent and then 1000 conjugate gradient cycles with harmonic restraints of 10 kcal/mol/Å2 on the solute, next 3000 steepest descent and 3000 conjugate gradient cycles without restraints. Next, the systems were heated up to 300K for 10 ps in NVT ensemble followed by the simulations in NPT ensemble at the pressure of 105 Pa. Finally, five independent MD production runs of 100 ns for each furin-inhibitor complex were performed in NPT ensemble. The time integration step was 2 fs, the cutoff for non-bonded interactions was 8 Å, the SHAKE algorithm for the covalent bonds that included hydrogen atoms12 and the Particle Mesh Ewald procedure13 were used. The […]

| remaining at 5 h [2] [%] | state of peptide in human serum [2] | remaining at 48 h [2] [%] | Structure (SMILES) | effect on furin-like activity in PANC-1 cell lysate [1] | reduction of initial enzyme activity in PANC-1 cell lysate ([1]; without SFTI-1) |
| --- | --- | --- | --- | --- | --- |
| ~15 | completely degraded | – | CC[C@H](C)[C@@H]1NC(=O)[C@@H]2CCCN2C(=O)[C@@H]2CCCN2C(=O)[C@H]([C@@H](C)CC)NC(=O)[C@H](CO)NC(=O)[C@H](CCCCN)NC(=O)[C@H](CCCCN)NC(=O)[C@@H](NC(=O)[C@H](CCCNC(=N)N)NC(=O)[C@@H](N)CCCCN)CSSC[C@@H](C(=O)N[C@@H](Cc2ccccc2)C(N)=O)NC1=O [FI, Lys-Arg-Cys(&)-Lys-Lys-Ser-Ile-Pro-Pro-Ile-Cys(&)-Phe-NH2, reference compound] (H-KRCKKSIPPICF-NH2; disulfide 3-11; N-terminus assumed) | reduced furin-like activity | about 50% |
| ~25 | completely degraded | – | CC[C@H](C)[C@@H]1NC(=O)[C@@H]2CCCN2C(=O)[C@@H]2CCCN2C(=O)[C@H]([C@@H](C)CC)NC(=O)[C@H](CO)NC(=O)[C@H](CCCCN)NC(=O)[C@H](CCCCN)NC(=O)[C@@H](NC(=O)[C@H](CCCNC(=N)N)NC(=O)[C@H](CCCNC(=N)N)NC(=O)[C@@H](N)CCCNC(=N)N)CSSC[C@@H](C(=O)N[C@@H](Cc2ccccc2)C(N)=O)NC1=O [inhibitor 3, Arg-Arg-Arg-Cys(&)-Lys-Lys-Ser-Ile-Pro-Pro-Ile-Cys(&)-Phe-NH2] (H-RRRCKKSIPPICF-NH2; disulfide 4-12) | reduced furin-like activity | – |
| – | – | ~59 | CC[C@H](C)[C@@H]1NC(=O)[C@@H]2CCCN2C(=O)[C@@H]2CCCN2C(=O)[C@H]([C@@H](C)CC)NC(=O)[C@H](CO)NC(=O)[C@H](CCCCN)NC(=O)[C@H](CCCCN)NC(=O)[C@@H]2CSSC[C@H](NC1=O)C(=O)N[C@@H](Cc1ccccc1)C(=O)N[C@@H](CCCCN)C(=O)N[C@@H](CCCNC(=N)N)C(=O)N[C@@H](CCCNC(=N)N)C(=O)N2 [inhibitor 5, &^1Lys-Arg-Arg-Cys(&^2)-Lys-Lys-Ser-Ile-Pro-Pro-Ile-Cys(&^2)-Phe&^1] (cyclo(KRRCKKSIPPICF); disulfide 4-12) | reduced furin-like activity | – |
| – | – | ~28 | CC[C@H](C)[C@@H]1NC(=O)[C@@H]2CCCN2C(=O)[C@@H]2CCCN2C(=O)[C@H]([C@@H](C)CC)NC(=O)[C@H](CO)NC(=O)[C@H](CCCCN)NC(=O)[C@H](CCCCN)NC(=O)[C@@H]2CSSC[C@H](NC1=O)C(=O)N[C@@H](Cc1ccccc1)C(=O)N[C@@H](CCCNC(=N)N)C(=O)N[C@@H](CCCNC(=N)N)C(=O)N[C@@H](CCCNC(=N)N)C(=O)N2 [inhibitor 6, &^1Arg-Arg-Arg-Cys(&^2)-Lys-Lys-Ser-Ile-Pro-Pro-Ile-Cys(&^2)-Phe&^1] (cyclo(RRRCKKSIPPICF); disulfide 4-12) | reduced furin-like activity | – |
